Laboratory results from US12492169B2, “Aminopyridine compound and application thereof” (priority 2020, dated 2025).
≈ marks a conversion by molar mass, not a printed value. Where “and” joins values, the source holds several entries; their conditions need not be identical. Equal values may be shown once. Read-outs that look alike come from different tables or passages of the source.

Assays:
[1] = test system: Candida albicans ATCC MYA-2876; test: Minimum inhibitory concentration (MIC) test against fungi; assay type: cell-based; conditions: ≥50% growth inhibition by eye, three independent experiments
Protocol: (§1) To test the minimum inhibitory concentration (MIC) and minimum effective concentration (MEC) of the drug against fungi.
(§2) Experimental strains: Candida parapsilosis ATCC 22019; Candida albicans ATCC MYA-2876; Candida albicans WX-CA009; Candida glabrata ATCC15126; Candida tropicalis ATCC 750;
(§3) Test medium: RPMI1640 (containing 0.165 M MOPS, pH7.0)
(§4) On the day of the experiment, the compound in the bottle was dissolved in 100% DMSO to a stock solution concentration of 6.24 mg/mL. Then, the mixture was 10-fold diluted with DMSO to 0.624 mg/mL for use.
(§5) A 2-fold gradient dilution of the compound solution (0.624 mg/mL) was performed using DMSO on a 96-microwell plate (V-bottom) to obtain 100× working solutions (wells 1 to 11). 624, 312, 156, 78, 39, 20, 10, 5, 2.5, 1.25, 0.625 μg/mL. 100% DMSO was used as a positive control (well 12). This was the compound stock plate.
(§6) Candida parapsilosis ATCC 22019 and Candida albicans ATCC MYA-2876; Candida albicans WX-CA009; Candida glabrata ATCC15126; Candida tropicalis ATCC 750 frozen at −80° C. were streaked on SDA plates and incubated aerobically in a 35±2° C. incubator for 24 hours.
(§7) On the day of the experiment, for strains Candida parapsilosis ATCC 22019, Candida albicans ATCC MYA-2876; Candida albicans WX-CA009; Candida glabrata ATCC15126; Candida tropicalis ATCC 750 and Cryptococcus neoformans H99 ATCC 208821, the plates were taken out and the clones on the plates were picked, suspended in normal saline, and then the turbidity of the fungal suspension was adjusted to OD600=0.2 using a turbidimeter. The fungal suspension contained about 3.0×10^6 CFU/mL. Then the turbidity-adjusted fungal suspension was diluted with a test medium to a concentration of about 3.0×10^3 CFU/mL. This was the inoculum.
(§8) 2 μL of 100× working solution from the compound stock plate (prepared in 3.1) was transferred to a round-bottomed 96-well plate (containing 98 μL of test medium), and then 100 μL of fungus inoculum (prepared in 3.2) was added to each well to obtain a MIC test plate. Therefore, the final test concentrations of the compounds were 6.24, 3.12, 1.56, 0.78, 0.39, 0.20, 0.10, 0.05, 0.025, 0.0125, 0.006 μg/mL. 1% DMSO was used as a growth control.
(§9) For strains Candida parapsilosis ATCC 22019; Candida albicans ATCC MYA-2876; Candida albicans WX-CA009; Candida glabrata ATCC15126; Candida tropicalis ATCC 750, all test plates were incubated aerobically in a 35±2° C. incubator for 24 hours.
(§10) After incubation, according to the criteria in Table 1 below, the test plate was observed by eye or microscope to determine the MIC (g/mL) and MEC (g/mL) of the test compound against yeast and mold.

[2] = test system: Candida albicans WX-CA009; test: as above; assay type: cell-based; conditions: ≥50% growth inhibition by eye, three independent experiments
Protocol: as §1, §2, §3, §4, §5, §6, §7, §8, §9, §10

[3] = test system: Candida glabrata ATCC15126; test: as above; assay type: cell-based; conditions: ≥50% growth inhibition by eye, three independent experiments
Protocol: as §1, §2, §3, §4, §5, §6, §7, §8, §9, §10

[4] = test system: Candida parapsilosis ATCC 22019; test: as above; assay type: cell-based; conditions: ≥50% growth inhibition by eye, three independent experiments (1st, 2nd, 3rd time)
Protocol: as §1, §2, §3, §4, §5, §6, §7, §8, §9, §10

[5] = test system: Candida tropicalis ATCC 750; test: as above; assay type: cell-based; conditions: ≥50% growth inhibition by eye, three independent experiments
Protocol: as §1, §2, §3, §4, §5, §6, §7, §8, §9, §10

[6] = test system: Cryptococcus neoformans H99 ATCC 208821; test: as above; assay type: cell-based; conditions: ≥50% growth inhibition by eye, three independent experiments
Protocol: as §1
Cryptococcus neoformans H99 ATCC 208821;
as §3, §4, §5
Cryptococcus neoformans H99 ATCC 208821 frozen at −80° C. was streaked on SDA plates and incubated aerobically in a 35±2° C. incubator for 48 hours.
as §7, §8
For Cryptococcus neoformans H99 ATCC 208821, all test plates were incubated aerobically in a 35±2° C. incubator for 72 hours.
as §10

[7] = test system: Aspergillus flavus ATCC MYA-1004; test: Minimum effective concentration (MEC) test against fungi; assay type: cell-based; conditions: change of hyphae morphology by microscope, 48 hours, three independent experiments
Protocol: as §1
(§11) Aspergillus fumigatus ATCC-MYA-4609; Aspergillus flavus ATCC MYA-1004
as §3, §4, §5
(§12) Aspergillus fumigatus ATCC-MYA-4609; Aspergillus flavus ATCC MYA-1004 frozen at −80° C. were streaked on SDA plates and incubated aerobically in a 30±2° C. incubator for 6 days.
(§13) For strains Aspergillus fumigatus ATCC MYA-4609; Aspergillus flavus ATCC MYA-1004, after taking out the plate, 3 mL of 0.9% normal saline containing 0.1% Tween20 was added to the plate and the spores were gently collected. The spores were counted with a hemocytometer and the spore suspension was adjusted to about 5×10^6 spores/mL. Then the spore suspension was diluted to 0.8 to 1×10^5 spores/mL with a test medium.
as §8
(§14) For mold strains Aspergillus fumigatus ATCC-MYA-4609 and Aspergillus flavus ATCC MYA-1004, all test plates were incubated aerobically in a 35±° C. incubator for 48 hours.
as §10

[8] = test system: Aspergillus fumigatus ATCC-MYA-4609; test: as above; assay type: cell-based; conditions: change of hyphae morphology by microscope, 48 hours, three independent experiments
Protocol: as §1, §11, §3, §4, §5, §12, §13, §8, §14, §10

[9] = Mouse pharmacokinetic evaluation, intraperitoneal injection after oral ABT; assay type: in vivo; conditions: ip, female CD-1 mice, ABT 50 mg/kg orally 2 hours before, plasma; for AUC: read-out: Concentration Integral AUC; for Cmax: read-out: Peak Concentration Cmax; for Tmax: read-out: Peak Time Tmax
Source text: Experimental Purpose: Using female CD-1 mice as test animals, LC/MS/MS was used to measure the plasma drug concentration at different times after intraperitoneal injection of the test compound. To study the pharmacokinetic behavior of the test compound in mice and evaluate its pharmacokinetic characteristics. Drug preparation: An appropriate amount of sample was weighed and then prepared into a clear or suspended solution. Administration scheme: Two healthy female CD-1 mice were taken, purchased from Beijing Vital River Laboratory Animal Technology Co., Ltd., and given a normal diet. The drug was administered through intraperitoneal injection. Operational steps: 2 hours before administration, 1-aminobenzotriazole (ABT) was orally administered (50 mg/kg, 5 mg/mL in normal saline), and after animal administration, about 30 μL of blood was collected at 0.083, 0.25, 0.5, 1, 2, 4, 8, and 24 hours, and placed in commercially available anticoagulant tubes pre-added with EDTA-K2. The tubes were centrifuged for 10 minutes to separate the plasma, and the plasma was stored at −60° C. The content of the target compound in the plasma sample was determined by LC/MS/MS method, and the experimental results are shown in Table 3.

[10] = test system: Candida albicans ATCC MYA-2876; test: Mouse candidemia efficacy model; assay type: in vivo; conditions: female CD-1 mice infected with Candida albicans ATCC MYA-2876; 26 mg/kg intraperitoneally once a day for 7 days after 50 mg/kg ABT orally; n=5
Protocol: Experimental animals: female CD-1 mice, 7 weeks old, 27 to 29 g, n=5 or 8;
microbial pathogen: Candida albicans ATCC MYA-2876;
inoculation level and route: 2.0 to 4.0E+05 CFU/mouse, infected by tail vein injection;
treatment: The treatment started at 1 hour after infection. Firstly, ABT was administered orally, and 2 hours later, the test compound was injected intraperitoneally once a day for 7 days in total, with an administration volume of 10 mL/kg.
Observation indicators: Changes in body weight and mortality within 7 days after infection in each group of mice.

[11] = Pharmacokinetic evaluation in rats (IV, PO); assay type: in vivo, Sprague-Dawley strain rats; conditions: rat plasma
Source text: (§15) Experimental Purpose: To evaluate the druggability of the compounds by measuring its pharmacokinetic properties in different animal species.
(§16) Experimental materials: CD-1 mice, Sprague-Dawley strain rats, beagle dogs, and crab-eating macaques.
(§17) Drug preparation: An appropriate amount of sample was weighed and then prepared into a clear or suspended solution.
(§18) Experimental procedure: The animal pharmacokinetic characteristics after intravenous injection and oral administration of the compound were tested using a standard protocol. The candidate compound was prepared as a clear solution (for intravenous injection) or a homogeneous suspension (for oral administration) during the experiment and administered to the animals as a single dose. Whole blood samples were collected at 0.083, 0.25, 0.5, 1, 2, 4, 8, and 24 hours, centrifuged at 3200 g for 10 minutes to separate the supernatant to obtain plasma samples. The plasma concentration was quantitatively analyzed by LC-MS/MS analysis method and pharmacokinetic parameters were calculated, such as peak concentration, peak time, clearance rate, half-life, area under the drug-time curve, etc.

[12] = Pharmacokinetic evaluation in dogs (IV, PO); assay type: in vivo, beagle dogs; conditions: dog plasma
Source text: as §15, §16, §17, §18

[13] = in vivo; parameters: species or system crab-eating macaques
Source text: as §15, §16, §17, §18

[14] = Candida albicans, 24 h, read-out: MIC
[15] = Candida albicans, WXCA009, 24 h, read-out: MIC
[16] = Nakaseomyces glabratus, ATCC15126, 24 h, read-out: MIC
[17] = Lodderomyces parapsilosis, ATCC22019, 24 h, read-out: MIC
[18] = Candida tropicalis, ATCC750, 24 h, read-out: MIC
[19] = Cryptococcus neoformans, ATCC208821, 72 h, read-out: MIC

Row | Compound | MIC [1, 14] [µg/mL] | MIC [2, 15] [µg/mL] | MIC [3, 16] [µg/mL] | MIC [4, 17] [µg/mL] | MIC [5, 18] [µg/mL] | MIC [6, 19] [µg/mL] | MEC [7] | MEC [8] | AUC ([9]; 6 mpk) [µM·h] | Cmax ([9]; 6 mpk) [µM] | Tmax ([9]; 6 mpk) [h] | MIC ([2]; 24 hours) [µg/mL] | further results
1 | Cc1cc(C#CCc2ccc(COc3ccccn3)cc2)cnc1N [WX007] | 0.1 (≈ 0.304 µM) | 0.05 (≈ 0.152 µM) | 0.78 (≈ 2.37 µM) | 0.1 (≈ 0.304 µM) | 0.05 (≈ 0.152 µM) | 1.56 (≈ 4.74 µM) | 0.39 µg/mL | 0.39 µg/mL | 64 | 4.7 | 1.5 | – | –
2 | Nc1ccc(C#CCc2ccc(Oc3cccc(F)n3)cc2)cn1 [WX009] | 0.05 (≈ 0.157 µM) | 0.05 (≈ 0.157 µM) | 0.78 (≈ 2.44 µM) | 0.05 (≈ 0.157 µM) | 0.1 (≈ 0.313 µM) | 0.025 (≈ 0.0783 µM) | 0.39 µg/mL | 0.39 µg/mL | 67 | 11.4 | 0.75 | – | protection from death caused by candidemia [10]: completely protect
3 | Nc1ncc(C#CCc2ccc(COc3ccccn3)cc2)cc1F [WX008] | 0.05 (≈ 0.15 µM) | 0.05 (≈ 0.15 µM) | 0.78 (≈ 2.34 µM) | 0.05 (≈ 0.15 µM) | 0.05 (≈ 0.15 µM) | 3.12 (≈ 9.36 µM) | 0.39 µg/mL | 1.56 µg/mL | 75 | 4.7 | 4.3 | – | –
4 | Nc1ccc(C#CCc2ccc(COc3ccccn3)cc2)c[n+]1COP(=O)(O)O [WX013] | – | – | – | – | – | – | – | – | – | – | – | – | time to complete decomposition into the parent drug WX004 [11]: ≤ 0.5 h; time to complete decomposition into the parent drug WX004 [12]: ≤ 0.5 h; time to complete decomposition into the parent drug WX004 ([13]; crab-eating macaque, crab-eating macaque (monkey)): ≤ 0.5 h; F % ([13]; monkey, po, 13.5 mg/kg): 89%
5 | Nc1ncccc1C#CCc1ccc(COc2ccccn2)cc1 [WX003] | – | 0.0125 (≈ 0.0396 µM) | 0.39 (≈ 1.24 µM) | 0.025 (≈ 0.0793 µM) | 0.0125 (≈ 0.0396 µM) | 0.39 (≈ 1.24 µM) | 0.2 µg/mL and 0.39 µg/mL | 0.1 µg/mL and 0.2 µg/mL | – | – | – | 0.025 (≈ 0.0793 µM) | MIC ([3]; 24 hours): 0.78 µg/mL (≈ 2.47 µM); AUC ([9]; 26 mpk): 27 µM·h; Cmax ([9]; 26 mpk): 13.5 µM; Tmax ([9]; 26 mpk): 0.5 h
6 | Cc1nc(N)ccc1C#CCc1ccc(COc2ccccn2)cc1 [WX006] | 0.025 (≈ 0.0759 µM) | 0.05 (≈ 0.152 µM) | 0.39 (≈ 1.18 µM) | 0.05 (≈ 0.152 µM) | 0.0125 (≈ 0.0379 µM) | 0.78 (≈ 2.37 µM) | 0.39 µg/mL and 0.2 µg/mL | 0.1 µg/mL and 0.05 µg/mL | – | – | – | 0.025 (≈ 0.0759 µM) | MIC ([1]; 24 hours): 0.0125 µg/mL (≈ 0.0379 µM); MIC ([5]; 24 hours): 0.025 µg/mL (≈ 0.0759 µM); AUC ([9]; 26 mpk): 221 µM·h; Cmax ([9]; 26 mpk): 23 µM; Tmax ([9]; 26 mpk): 1.5 h; protection from death caused by candidemia [10]: completely protect
7 | Nc1ccc(C#CCc2ccc(COc3ccccn3)cc2)c(F)n1 [WX005] | 0.05 (≈ 0.15 µM) | 0.1 (≈ 0.3 µM) | 1.56 (≈ 4.68 µM) | 0.2 (≈ 0.6 µM) | – | > 6.24 | 3.12 µg/mL | 0.39 µg/mL and 0.2 µg/mL | – | – | – | 0.05 (≈ 0.15 µM) | MIC ([1]; 24 hours): 0.1 µg/mL (≈ 0.3 µM); MIC ([4]; 24 hours): 0.1 µg/mL (≈ 0.3 µM); MIC ([6]; 72 hours): 6.24 µg/mL (≈ 18.7 µM)
